# Test results published in patent publication US20050215520A1, “Complex of organic medicines and beta-cyclodextrin derivatives and its preparing process” (priority 2002, published 2005).
# Read-outs that look alike come from different tables or passages of the source.
# Legend:
# [1] = Critical mole ratio or critical mass ratio of medicines and beta-cyclodextrin derivative (Table 1, examples); type: physicochemical
# Experimental: The critical mole ratio or critical mass ratio in the present invention refers to the mole ratio and mass ratio when complex of organic medicine and beta-cyclodextrin derivatives prepared with the method of this invention is dissolved exactly in water of specified amount to form stable aqueous solution.
# The critical value of organic medicine and beta-cyclodextrin derivatives in the present invention, may be determined with the undermentioned unit test method.
# (§1) All kinds of mole ratio and mass ratio of the medicine and beta-cyclodextrin derivative is made into complex with expanding loose body according to the method of the present invention, then the set water is added into the a variety of compounding ratio of complex, and by observing properties of the solution, the compounding ratio of exactly dissolving in water and with stable property, acts as the critical mole ratio or critical mass ratio of the present invention.
# The critical mole ratio and critical mass ratio in the present invention may be determined with the undermentioned saturated solution method.
# Weighing accurately medicine, and placing in the container, and gradually adding beta-cyclodextrin aqueous solution metered accurately with agitation, until the medicine is dissolved exactly and completely in this aqueous solution. Calculate both mass number here and convert it to mole number. Repeat the above-mentioned test, and get the mean mole number of repeated test, and calculate critical mole ratio with the undermentioned formula: Critical mole ratio of medicine=mean mole number of beta-cyclodextrin/mean mole number of medicine
# [2] = Critical value of complex by unit test method (complexes of various compounding ratio dissolved in set water, solution properties observed); type: physicochemical; details: hydroxide propyl beta-cyclodextrin to medicine
# Experimental: as §1, with “The critical value of organic medicine and beta-cyclodextrin derivatives in the present invention, may be determined with the undermentioned unit test method. All” for “All”
# [3] = system: plasmodium; assay: Medicine efficacy on killing plasmodium in mice infected plasmodium; type: in vivo; details: for ED90 comparison p.o./iv: ED90 of original medicine p.o. relative to its complex iv (complex = 1); for ED50: read-out: efficacy (killing) ED50
# [4] = Critical mole ratio by saturated solution method; type: physicochemical; details: 40% hydroxide propyl beta-cyclodextrin aqueous solution, mean of 3 tests
# Experimental: The critical mole ratio and critical mass ratio in the present invention may be determined with the undermentioned saturated solution method. Weighing accurately medicine, and placing in the container, and gradually adding beta-cyclodextrin aqueous solution metered accurately with agitation, until the medicine is dissolved exactly and completely in this aqueous solution. Calculate both mass number here and convert it to mole number. Repeat the above-mentioned test, and get the mean mole number of repeated test, and calculate critical mole ratio with the undermentioned formula: Critical mole ratio of medicine=mean mole number of beta-cyclodextrin/mean mole number of medicine For example, critical mole ratio of Artemisinin and hydroxide propyl beta-cyclodextrin is measured with the undermentioned method: Weight accurately Artemisinin, and grind in tissue grinding device, and place in beaker, and gradually add 40% hydroxide propyl beta-cyclodextrin aqueous solution metered accurately while agitation, until Artemisinin is dissolved exactly and completely in this aqueous solution. Calculate both mass number here and convert it to mole number.
# [5] = medicine alone; cited from earlier work
# [6] = beta-cyclodextrin derivative (hydroxide propyl beta-cyclodextrin in the examples) to medicine, complex dissolves exactly in water to stable solution
Compound,"Critical value mole ratio [1, 6]","Critical value Mass ratio [1, 6]",other results
CC1(C)S[C@@H]2[C@H](NC(=O)[C@H](N)c3ccccc3)C(=O)N2[C@H]1C(=O)O [Ampicilline],3,,
C[C@@H]1CC[C@H]2[C@@H](C)C(=O)O[C@@H]3O[C@@]4(C)CC[C@@H]1[C@]32OO4 [Artemisinin],5,,"critical mass ratio of complex [2]: about 28; critical mole ratio of complex [2]: about 5; ED90 comparison p.o./iv [3]: 2.13; ED50 ([3]; mice infected plasmodium, route of administration po.): 19 mg/kg; critical mole ratio [4]: about 5; water solubility of the medicine [5]: hardly water-soluble"
C[C@H]1[C@H](OC(=O)CCC(=O)O)O[C@@H]2O[C@@]3(C)CC[C@H]4[C@H](C)CC[C@@H]1[C@@]24OO3 [Artesunate],3,,"ED90 comparison p.o./iv [3]: 1.88; ED50 ([3]; Plasmodium, po): 9.96 mg/kg"
CC[C@H]1OC(=O)[C@H](C)[C@@H](O[C@H]2C[C@@](C)(OC)[C@@H](O)[C@H](C)O2)[C@H](C)[C@@H](O[C@@H]2O[C@H](C)C[C@H](N(C)C)[C@H]2O)[C@](C)(O)C[C@@H](C)CN(C)[C@H](C)[C@@H](O)[C@]1(C)O [Azithromycin],16,,
CN(Cc1cc(Br)cc(Br)c1N)C1CCCCC1 [Bromhexine],3,,
CS(=O)(=O)OCCCCOS(C)(=O)=O [Busulfan],5,,
O=C(O)c1cn(C2CC2)c2cc(N3CCNCC3)c(F)cc2c1=O [Ciprofloxacin],5,,
CC[C@H]1OC(=O)[C@H](C)[C@@H](O[C@H]2C[C@@](C)(OC)[C@@H](O)[C@H](C)O2)[C@H](C)[C@@H](O[C@@H]2O[C@H](C)C[C@H](N(C)C)[C@H]2O)[C@](C)(OC)C[C@@H](C)C(=O)[C@H](C)[C@@H](O)[C@]1(C)O [Clarithromycin],18,,
Clc1ccccc1C(c1ccccc1)(c1ccccc1)n1ccnc1 [Clotrimazole],4,,
CN1C(=O)CN=C(c2ccccc2)c2cc(Cl)ccc21 [Diazepam],,,Critical value mole ratio [1]: 3
CC(CN1c2ccccc2S(=O)(=O)c2ccccc21)N(C)C (centres unmarked) [Dioxopromethazine],,2,
CC[C@H]1OC(=O)[C@H](C)[C@@H](O[C@H]2C[C@@](C)(OC)[C@@H](O)[C@H](C)O2)[C@H](C)[C@@H](O[C@@H]2O[C@H](C)C[C@H](N(C)C)[C@H]2O)[C@](C)(O)C[C@@H](C)C(=O)[C@H](C)[C@@H](O)[C@]1(C)O [Erythromycin],6,,
Clc1ccc2c(c1)C(c1ccccc1)=NCc1nncn1-2 [Estazolam],,20,
COc1cc([C@@H]2c3cc4c(cc3[C@@H](O[C@@H]3O[C@@H]5CO[C@@H](C)O[C@H]5[C@H](O)[C@H]3O)[C@H]3COC(=O)[C@H]23)OCO4)cc(OC)c1O [Etoposide],10,,
CC(C)Cc1ccc(C(C)C(=O)O)cc1 (centres unmarked) [Ibuprofen],,8,
CC(=O)N1CCN(c2ccc(OCC3COC(Cn4ccnc4)(c4ccc(Cl)cc4Cl)O3)cc2)CC1 (centres unmarked) [Ketoconazole],3,,
CCN1C[C@]2(OC(=O)c3ccccc3NC(C)=O)CC[C@H](OC)[C@@]34[C@@H]2C[C@@H]([C@@H]13)[C@@]1(O)C[C@H](OC)[C@H]2C[C@@H]4[C@]1(O)[C@H]2OC [Lappaconitine],2,,
O=C1Nc2ccc(Cl)cc2C(c2ccccc2Cl)=NC1O (centres unmarked) [Lorazepam],3,,
CC[C@H](C)C(=O)O[C@H]1C[C@@H](C)C=C2C=C[C@H](C)[C@H](CC[C@@H]3C[C@@H](O)CC(=O)O3)[C@H]21 [Lovastatin],26,,

Compound,"Critical value mole ratio [1, 6]","Critical value Mass ratio [1, 6]",other results
Cc1ncc([N+](=O)[O-])n1CCO [Metronidazole],,9,
Clc1ccc(COC(Cn2ccnc2)c2ccc(Cl)cc2Cl)c(Cl)c1 (centres unmarked) [Miconazole],6,,
CN1C(C(=O)Nc2ccccn2)=C(O)c2ccccc2S1(=O)=O [Piroxicam],,15,
C[C@]12CC[C@H](O)CC1=CC[C@@H]1[C@@H]2CC[C@]2(C)C(=O)CC[C@@H]12 [Prasterone],3,,
COc1cc2c(cc1OC)[C@@H]1Cc3ccc(OC)c(OC)c3CN1CC2 [Rotundine],1,,
CC[C@H]1OC(=O)[C@H](C)[C@@H](O[C@H]2C[C@@](C)(OC)[C@@H](O)[C@H](C)O2)[C@H](C)[C@@H](O[C@@H]2O[C@H](C)C[C@H](N(C)C)[C@H]2O)[C@](C)(O)C[C@@H](C)/C(=N\OCOCCOC)[C@H](C)[C@@H](O)[C@]1(C)O [Roxithromycin],18,,
CC(C)CC(N(C)C)C1(c2ccc(Cl)cc2)CCC1 (centres unmarked) [Sibutramine],,2,
CCCc1nn(C)c2c(=O)[nH]c(-c3cc(S(=O)(=O)N4CCN(C)CC4)ccc3OCC)nc12 [Sildenafil],2,,
COc1cc(Cc2cnc(N)nc2N)cc(OC)c1OC [TMP],3,,
CC/C(=C(\c1ccccc1)c1ccc(OCCN(C)C)cc1)c1ccccc1 [Tamoxifen],2,,
CC(=O)O[C@H]1C(=O)[C@@]2(C)[C@H]([C@H](OC(=O)c3ccccc3)[C@]3(O)C[C@H](OC(=O)[C@H](O)[C@@H](NC(=O)c4ccccc4)c4ccccc4)C(C)=C1C3(C)C)[C@]1(OC(C)=O)CO[C@@H]1C[C@@H]2O [Taxol],100,,
CCS(=O)(=O)CCn1c([N+](=O)[O-])cnc1C [Tinidazole],,6.5,
Cc1ccc(-c2nc3ccc(C)cn3c2CC(=O)N(C)C)cc1 [Zolpidem],2,,
CC1(C)C2CCC1(C)C(O)C2 (centres unmarked) [borneol],,6,
Cn1c(=O)c2c(ncn2C)n(C)c1=O [caffein],,4,
CC12CCC(CC1=O)C2(C)C (centres unmarked) [camphor],,8,
CC(C)(O)C(Cl)(Cl)Cl [chlorbutanol],,6,
OC(CCCN1CCCCC1)(c1ccccc1)c1ccccc1 [difenidol],1,,
NC(N)=Nc1nc(CSCCC(N)=NS(N)(=O)=O)cs1 [famotidine],,9,

Compound,"Critical value mole ratio [1, 6]","Critical value Mass ratio [1, 6]",other results
Cc1ccc(S(=O)(=O)NC(=O)NN2CC3CCCC3C2)cc1 (centres unmarked) [gliclazide],2,,
CN1CCC(=C2c3ccccc3CC(=O)c3sccc32)CC1 [ketotifen],,4,
Cc1nc(C)c(C)nc1C [ligustrazine],,12,
O=C(O)CCCC[C@@H]1CCSS1 [lipoic acid],1,,
CC1CCC(C(C)C)C(O)C1 (centres unmarked) [menthol],2,,
CCOC(=O)[N-]c1cn(N2CCOCC2)n[o+]1 [molsidomine],,11,
CCn1cc(C(=O)O)c(=O)c2cc(F)c(N3CCNCC3)cc21 [norfloxacin],,30,
CC(=O)Nc1ccc(O)cc1 [paracetamol],,3,
C[C@]12C=CC(=O)C=C1CC[C@@H]1[C@@H]2C(=O)C[C@@]2(C)[C@H]1CC[C@]2(O)C(=O)CO [prednisone],4,,
CC(=O)S[C@@H]1CC2=CC(=O)CC[C@]2(C)[C@H]2CC[C@@]3(C)[C@@H](CC[C@@]34CCC(=O)O4)[C@H]12 [spironolactone],3,,
Nc1ccc(S(=O)(=O)Nc2ncccn2)cc1 [sulfadiazine],3,,
Cc1noc(NS(=O)(=O)c2ccc(N)cc2)c1C [sulfafurazole],2,,
Cc1cc(NS(=O)(=O)c2ccc(N)cc2)no1 [sulfamethoxazole],2,,
C[C@]12CC[C@H]3[C@@H](CCC4=CC(=O)CC[C@@]43C)[C@@H]1CC[C@@H]2O [testosterone],,,Critical value mole ratio [1]: 4
NC(=O)CCCCC1CCSS1 (centres unmarked) [thioctamide],,7,
COc1cc(C=O)ccc1O [vanillin],,9,
Artemoter,8,,
Medicamycin,8,,
Oryzanol,,38,
